Reference: the NIST ThermoML archive (doi:10.1021/je060271a)
Numbers after ± are expanded uncertainties.

Conditions: 323.14 K, Liquid, Vibrating tube method

CCCCCCC(=O)OCC(COC(=O)CCCCCC)(COC(=O)CCCCCC)COC(=O)CCCCCC [pentaerythritol tetraheptanoate]
Conditions | mass density [kg/m3]
8083.9 kPa | 961.1 ± 1.2
8112.2 kPa | 961 ± 1.2
8146.4 kPa | 961.1 ± 1.2
8174.7 kPa | 961.1 ± 1.2
8204 kPa | 961.1 ± 1.2
8239.5 kPa | 961.1 ± 1.2
8270.3 kPa | 961.2 ± 1.2
8300.6 kPa | 961.1 ± 1.2
8335.1 kPa | 961.2 ± 1.2
8358.1 kPa | 961.3 ± 1.2
8377.9 kPa | 961.3 ± 1.2
8401.4 kPa | 961.2 ± 1.2
8421.2 kPa | 961.3 ± 1.2
8441.4 kPa | 961.4 ± 1.2
8465.3 kPa | 961.4 ± 1.2
8485.9 kPa | 961.3 ± 1.2
8506.7 kPa | 961.3 ± 1.2
8527.9 kPa | 961.3 ± 1.2
8548.6 kPa | 961.4 ± 1.2
8573.6 kPa | 961.4 ± 1.2
8594.5 kPa | 961.5 ± 1.2
8619.3 kPa | 961.5 ± 1.2
8640.2 kPa | 961.3 ± 1.2
8661.6 kPa | 961.4 ± 1.2
8682.6 kPa | 961.4 ± 1.2
9244.8 kPa | 961.9 ± 1.2
9604.8 kPa | 962.1 ± 1.2
9745.2 kPa | 962.3 ± 1.2
9761.3 kPa | 962.2 ± 1.2
9775 kPa | 962.3 ± 1.2
9934.6 kPa | 962.3 ± 1.2
9965.6 kPa | 962.4 ± 1.2
9979.5 kPa | 962.3 ± 1.2
9996.2 kPa | 962.3 ± 1.2
10025 kPa | 962.4 ± 1.2
10042 kPa | 962.3 ± 1.2
10056 kPa | 962.4 ± 1.2
10453 kPa | 962.6 ± 1.2
10957 kPa | 962.9 ± 1.2
10974 kPa | 962.9 ± 1.2
10995 kPa | 963 ± 1.2
11012 kPa | 962.9 ± 1.2
11032 kPa | 963 ± 1.2
11050 kPa | 963.1 ± 1.2
11067 kPa | 963 ± 1.2
11088 kPa | 963 ± 1.2
11123 kPa | 963.1 ± 1.2
11141 kPa | 963.1 ± 1.2
11162 kPa | 963.1 ± 1.2
11180 kPa | 963.2 ± 1.2
11202 kPa | 963.2 ± 1.2
11220 kPa | 963.2 ± 1.2
11238 kPa | 963.3 ± 1.2
11259 kPa | 963.3 ± 1.2
11278 kPa | 963.2 ± 1.2
11296 kPa | 963.2 ± 1.2
11317 kPa | 963.2 ± 1.2
11335 kPa | 963.2 ± 1.2
11354 kPa | 963.2 ± 1.2
11679 kPa | 963.5 ± 1.2
11702 kPa | 963.5 ± 1.2
11722 kPa | 963.5 ± 1.2
11742 kPa | 963.4 ± 1.2
11765 kPa | 963.6 ± 1.2
11786 kPa | 963.6 ± 1.2
11806 kPa | 963.5 ± 1.2
11826 kPa | 963.6 ± 1.2
11850 kPa | 963.7 ± 1.2
11871 kPa | 963.6 ± 1.2
11892 kPa | 963.5 ± 1.2
11914 kPa | 963.6 ± 1.2
11934 kPa | 963.6 ± 1.2
11958 kPa | 963.7 ± 1.2
12004 kPa | 963.6 ± 1.2
12461 kPa | 964 ± 1.2
12560 kPa | 964 ± 1.2
12657 kPa | 963.9 ± 1.2
12708 kPa | 964 ± 1.2
12732 kPa | 964 ± 1.2
12784 kPa | 964.2 ± 1.2
12808 kPa | 964.1 ± 1.2
12962 kPa | 964.3 ± 1.2
12986 kPa | 964.3 ± 1.2
13011 kPa | 964.3 ± 1.2
13041 kPa | 964.2 ± 1.2
13066 kPa | 964.4 ± 1.2
13090 kPa | 964.3 ± 1.2
13120 kPa | 964.4 ± 1.2
13146 kPa | 964.4 ± 1.2
13171 kPa | 964.4 ± 1.2
13202 kPa | 964.3 ± 1.2
13252 kPa | 964.5 ± 1.2
13283 kPa | 964.5 ± 1.2
13308 kPa | 964.4 ± 1.2
13334 kPa | 964.6 ± 1.2
13365 kPa | 964.6 ± 1.2
13391 kPa | 964.5 ± 1.2
13418 kPa | 964.6 ± 1.2
13449 kPa | 964.6 ± 1.2
13475 kPa | 964.7 ± 1.2
13502 kPa | 964.6 ± 1.2
13533 kPa | 964.6 ± 1.2
13560 kPa | 964.7 ± 1.2
13587 kPa | 964.5 ± 1.2
13619 kPa | 964.7 ± 1.2
13645 kPa | 964.7 ± 1.2
13678 kPa | 964.8 ± 1.2
13705 kPa | 964.6 ± 1.2
13732 kPa | 964.8 ± 1.2
13760 kPa | 964.7 ± 1.2
13793 kPa | 964.8 ± 1.2
